Patent US6756382B2, “Amide substituted imidazoquinolines” (3M Innovative Properties Company, priority 1999, dated 2004)

Experiments:
interferon (α) = test: Cytokine induction in human cells: interferon secreted by PBMCs, ELISA; format: cell-based; details: PBMC, incubated 18 to 24 hours, interferon determined by ELISA, read-out: Lowest Effective Concentration (μM) Interferon
Source text: (§1) An in vitro human blood cell system was used to assess cytokine induction by compounds of the invention. Activity is based on the measurement of interferon and tumor necrosis factor (α) (IFN and TNF, respectively) secreted into culture media as described by Testerman et. al. In “Cytokine Induction by the Immunomodulators Imiquimod and S-27609”, Journal of Leukocyte Biology, 58, 365-372 (September, 1995).
(§2) Whole blood is collected by venipuncture into EDTA vacutainer tubes from healthy human donors. Peripheral blood mononuclear cells (PBMCs) are separated from whole blood by density gradient centrifugation using Histopaque®-1077 (Sigma Chemicals, St. Louis, Mo.). The PBMCs are suspended at 3-4×10^6 cells/mL in RPMI 1640 medium containing 10% fetal bovine serum, 2 mM L-glutamine and 1% penicillin/streptomycin solution (RPMI complete). The PBMC suspension is added to 48 well flat bottom sterile tissue culture plates (Costar, Cambridge, Mass. or Becton Dickinson Labware, Lincoln Park, N.J.) containing an equal volume of RPMI complete media containing test compound.
(§3) The compounds are solubilized in dimethyl sulfoxide (DMSO). The DMSO concentration should not exceed a final concentration of 1% for addition to the culture wells.
(§4) The solution of test compound is added at 60 μM to the first well containing RPMI complete and serial (three fold or ten fold) dilutions are made. The PBMC suspension is then added to the wells in an equal volume, bringing the test compound concentrations to the desired range. The final concentration of PBMC suspension is 1.5-2×10^6 cells/mL. The plates are covered with sterile plastic lids, mixed gently and then incubated for 18 to 24 hours at 37° C. in a 5% carbon dioxide atmosphere.
(§5) Following incubation the plates are centrifuged for 5-10 minutes at 1000 rpm (˜200×g) at 4° C. The cell culture supernatant is removed with a sterile polypropylene pipet and transferred to sterile polypropylene tubes. Samples are maintained at −30 to −70° C. until analysis. The samples are analyzed for interferon (α) by either ELISA or bioassay and for tumor necrosis factor (α) by ELISA.
Interferon (α) concentration is determined by ELISA using a Human Multi-Species kit from PBL Biomedical Laboratories, New Brunswick, N.J.
(§6) The table below lists the lowest concentration found to induce interferon and the lowest concentration found to induce tumor necrosis factor for each compound. […] Unless otherwise indicated, the interferon biosynthesis was determined by ELISA.

[1] = system: tumor necrosis factor (α); test: Cytokine induction in human cells: tumor necrosis factor (α) secreted by PBMCs, ELISA; format: cell-based; details: PBMC, incubated 18 to 24 hours, TNF determined by ELISA, read-out: Lowest Effective Concentration (μM) Tumor Necrosis Factor
Source text: as §1, §2, §3, §4, §5
Tumor necrosis factor (α) (TNF)concentration is determined using ELISA kits available from Genzyme, Cambridge, Mass.; R&D Systems, Minneapolis, Minn.; or Pharmingen, San Diego, Calif.
as §6

| SMILES | minimal effective concentration (interferon (α)) | minimal effective concentration [1] |
| --- | --- | --- |
| COC(=O)CCCCC(=O)NCCCCn1cnc2c(N)nc3ccccc3c21 [Example 95] | 3.33 µM | 30 µM |
| Nc1nc2ccccc2c2c1ncn2CCCCNC(=O)c1ccc([N+](=O)[O-])o1 [Example 96] | 0.37 µM | 10 µM |
| Nc1nc2ccccc2c2c1ncn2CCCCNC(=O)c1cccnc1Cl [Example 97] | 0.12 µM | 3.33 µM |
| COc1ccc(CC(=O)NCCCCn2cnc3c(N)nc4ccccc4c32)cc1 [Example 98] | 1.11 µM | 10 µM |
| Nc1nc2ccccc2c2c1ncn2CCCCNC(=O)CC1CCCC1 [Example 99] | 0.37 µM | 3.33 µM |
| COC(=O)c1ccc(C(=O)NCCCCn2cnc3c(N)nc4ccccc4c32)cc1 [Example 100] | 10 µM | 3.33 µM |
| COC(=O)CCCCCCCCC(=O)NCCCCn1cnc2c(N)nc3ccccc3c21 [Example 101] | 3.33 µM | > 30 µM |
| Nc1nc2ccccc2c2c1ncn2CCCCNC(=O)c1ccc(OC(F)(F)F)cc1 [Example 102] | 3.33 µM | > 30 µM |
| Nc1nc2ccccc2c2c1ncn2CCCCNC(=O)c1ccc(CN2CCOCC2)cc1 [Example 103] | 0.37 µM | 10 µM |
| Nc1nc2ccccc2c2c1ncn2CCCCNC(=O)c1ccc(CN2CCN(C(c3ccccc3)c3ccccc3)CC2)cc1 [Example 104] | > 30 µM | > 30 µM |
| Nc1nc2ccccc2c2c1ncn2CCCCNC(=O)c1ccc(CNCc2ccncc2)cc1 [Example 105] | 0.12 µM | 10 µM |
| COc1ccccc1CCNCc1ccc(C(=O)NCCCCn2cnc3c(N)nc4ccccc4c32)cc1 [Example 106] | 3.33 µM | > 30 µM |
| CN(CCc1ccccn1)Cc1ccc(C(=O)NCCCCn2cnc3c(N)nc4ccccc4c32)cc1 [Example 107] | 0.12 µM | 10 µM |
| Nc1nc2ccccc2c2c1ncn2CCCCNC(=O)Cc1cccs1 [Example 108, N^1-(4-(4-Amino-1H-imidazo[4,5-c]quinolin-1-yl)butyl)-2-(2-thienyl)acetamide] | 0.12 µM | 10 µM |
| Nc1nc2ccccc2c2c1ncn2CCCCNC(=O)CC(c1ccccc1)c1ccccc1 [Example 109] | > 30 µM | > 30 µM |
| Nc1nc2ccccc2c2c1ncn2CCCCNC(=O)CC1C=CCC1 (stereo not drawn) [Example 110] | 1.11 µM | 3.33 µM |
| Nc1nc2ccccc2c2c1ncn2CCCCNC(=O)c1cc(Cl)cc(Cl)c1 [Example 111] | 1.11 µM | > 30 µM |
| N#CCC(=O)NCCCCn1cnc2c(N)nc3ccccc3c21 [Example 112] | 10 µM | > 30 µM |
| COC(=O)CCC(=O)NCCCCn1cnc2c(N)nc3ccccc3c21 [Example 113] | 3.33 µM | > 30 µM |
| C#CCCC(=O)NCCCCn1cnc2c(N)nc3ccccc3c21 [Example 115] | 1.11 µM | 30 µM |
| C=CCCC(=O)NCCCCn1cnc2c(N)nc3ccccc3c21 [Example 116] | 0.37 µM | 10 µM |
| COC(=O)CCCC(=O)NCCCCn1cnc2c(N)nc3ccccc3c21 [Example 117] | 3.33 µM | > 30 µM |
| CC(=O)CCCC(=O)NCCCCn1cnc2c(N)nc3ccccc3c21 [Example 118] | 1.11 µM | > 30 µM |
| C#CCCCCCCCCC(=O)NCCCCn1cnc2c(N)nc3ccccc3c21 [Example 119] | > 30 µM | > 30 µM |
